Data: article PMC5548886 (Cancer Medicine, 2017)

How the values were obtained:
[1] = system: patients with locally advanced or metastatic melanoma; assay: Phase I dose-escalation: safety, adverse events (NCI CTCAE v3.0), DLT and MTD; type: in vivo
Description: This study was an open‐label, multicenter, nonrandomized, phase I/II, dose‐escalation study of orally administered RAF265. […] The study was comprised of two phases: A dose escalation phase and an expansion phase at the MTD/RP2D. The dose‐escalation phase was guided by pharmacokinetics (PK), pharmacodynamics (PD) and safety. […] In the expansion phase (cohort 7.1) the PK run in was omitted and patients received a loading dose in 3 divided doses followed by lower daily dose beginning on Cycle 1, Day 2. The cycle length was 28 days in all cohorts. Here, we report the dose escalation and expansion arm investigating a continuous treatment regimen.
Medical history and demographics were collected at screening. The safety of study medication was evaluated on the basis of rate, type, severity graded in accordance with NCI CTCAE version 3.0. Safety assessments consisted of collecting all AEs, serious adverse events (SAEs) with their severity and relationship with study drug, and pregnancies. They included the regular monitoring of hematology, blood chemistry and urine performed at the study center/central laboratory and regular assessments of vital signs, physical condition, body weight, performance status, and cardiac data (i.e. electrocardiogram (ECG)/echocardiogram (ECHO)). Abnormalities in clinical laboratory tests that were considered clinically significant by the Investigator were recorded on the AE CRF. Dose‐limiting toxicities (DLTs) were defined for various organ systems and other clinically relevant adverse effects (Table S1). The DLT window was the first cycle while AEs were captured for the entire course of treatment. Evaluation of tumor response was conducted at Baseline, and at the end of every 8 weeks of treatment. Response was assessed using the Response Evaluation Criteria in Solid Tumors (RECIST) 1.0. A complete or partial response (CR or PR) was confirmed at least 28 days after the first assessment that documented response and every two cycles thereafter until disease progression, initiation of confounding anticancer therapy, death, loss to follow‐up, withdrawal of consent, or study termination. All patients discontinuing from the study for progressive disease were to have their disease progression documented by radiologic evaluation.
The MTD was defined as the dose level with 16–33.3% probability of a DLT. […] Descriptive statistic were used for the analysis of PK, biomarker analysis and tumor response data.

[2] = system: tumor metabolic activity (SUV); assay: Metabolic tumor response by 18[F]-FDG-PET; type: in vivo, human
Method: Pharmacodynamic markers were examined using peripheral blood samples, tumor and nevi biopsies (when available) and tumor imaging. BRAF mutation status was determined by Sanger sequencing. Pharmacodynamic markers analyzed, in available tumor/nevus samples obtained before treatment or archival tissue and during treatment on cycle 1, day 8 or day 15, including cytoplasmic p‐MEK, p‐ERK, BIM, c‐KIT, p‐AKT473, pS6 and PTEN, and nuclear p‐ERK, Ki‐67, PARP, cyclin D1, MITF, p27, and p53. Biomarker expression was determined by calculating the percentage of change in the H‐score (14) between on‐treatment and fresh/archival pretreatment specimens. Blood levels of VEGFR‐2 and were assessed before and at multiple time points while on treatment using enzyme‐linked immunosorbent assay (ELISA). […] Changes in standard uptake value (SUV) were determined by a blinded, independent central imaging review panel. Complete metabolic response (CMR) was complete resolution of tumor FDG‐PET uptake so SUV is the same as background. Partial metabolic response (PMR) decrease in sum of the tumor SUV of ≥25% from the baseline scan. Progressive metabolic disease (PMD) was defined as an increase in tumor SUV of ≥25% from the baseline scan, or the appearance of new FDG‐PET uptake in metastatic lesions. Stable metabolic disease (SMD) was defined as a change in tumor SUV between the PMR and PMD criteria.

Cn1c(Nc2ccc(C(F)(F)F)cc2)nc2cc(Oc3ccnc(-c4ncc(C(F)(F)F)[nH]4)c3)ccc21 [RAF265]
deaths within 28 days of last administration of the study drug ([1]; 5 deaths, none deemed treatment related): 6.5%
AEs requiring dose adjustment or interruption, patients ([1]; human, in vivo): 39%
Abdominal pain (treatment-emergent grade 3/4) ([1]; human, in vivo): 1 (2.4%) n (%)
Angina unstable (treatment-emergent grade 3/4) ([1]; human, in vivo): 1 (2.4%) n (%)
Ataxia (treatment-emergent grade 3/4) ([1]; human, in vivo): 1 (2.4%) n (%)
Basal cell carcinoma (treatment-emergent grade 3/4) ([1]; human, in vivo): 1 (2.4%) n (%)
Blood lactic acid increased (treatment-emergent grade 3/4) ([1]; human, in vivo): 1 (2.4%) n (%)
Cutaneous lupus erythematosus (treatment-emergent grade 3/4) ([1]; human, in vivo): 1 (2.4%) n (%)
Decreased appetite (treatment-emergent grade 3/4) ([1]; human, in vivo): 2 (4.8%) n (%)
Diarrhea (treatment-emergent grade 3/4) ([1]; human, in vivo): 4 (9.8%) n (%)
Dyspnea (treatment-emergent grade 3/4) ([1]; human, in vivo): 1 (2.4%) n (%)
Fatigue (treatment-emergent grade 3/4) ([1]; human, in vivo): 6 (14.4%) n (%)
Hematological (treatment-emergent grade 3/4) ([1]; human, in vivo): 12 (29.2%) n (%)
Hypertension (treatment-emergent grade 3/4) ([1]; human, in vivo): 4 (9.8%) n (%)
Hypophosphatemia (treatment-emergent grade 3/4) ([1]; human, in vivo): 1 (2.4%) n (%)
Lipase increased (treatment-emergent grade 3/4) ([1]; human, in vivo): 2 (4.8%) n (%)
Neutropenia (treatment-emergent grade 3/4) ([1]; human, in vivo): 4 (9.8%) n (%)
Pancytopenia (treatment-emergent grade 3/4) ([1]; human, in vivo): 1 (2.4%) n (%)
Pulmonary embolism (treatment-emergent grade 3/4) ([1]; human, in vivo): 2 (4.8%) n (%)
SAE constipation ([1]; human, in vivo): 2.6%
SAE dehydration ([1]; human, in vivo): 5.2%
SAE pulmonary embolism ([1]; human, in vivo): 6.5%
SAE retinopathy ([1]; human, in vivo): 2.6%
SAE thrombocytopenia ([1]; human, in vivo): 3.9%
Squamous cell carcinoma (treatment-emergent grade 3/4) ([1]; human, in vivo): 2 (4.8%) n (%)
Thrombocytopenia (treatment-emergent grade 3/4) ([1]; human, in vivo): 7 (17.1%) n (%)
Total (n), treatment-emergent grade 3/4 events ([1]; human, in vivo): 41 (53.2%) n (%)
Vitreous floaters (treatment-emergent grade 3/4) ([1]; human, in vivo): 2 (4.8%) n (%)
Weight loss (treatment-emergent grade 3/4) ([1]; human, in vivo): 1 (2.4%) n (%)
decreased appetite requiring dose adjustment or interruption ([1]; human, in vivo): 5.2%
development of hypertension, patients ([1]; human, in vivo): 17%
diarrhea requiring dose adjustment or interruption ([1]; human, in vivo): 6.5%
fatigue requiring dose adjustment or interruption ([1]; human, in vivo): 7.8%
hypertension requiring dose adjustment or interruption ([1]; human, in vivo): 5.2%
nausea requiring dose adjustment or interruption ([1]; human, in vivo): 5.2%
overall rate of grade 3 and 4 toxicities ([1]; human, in vivo): 53.2%
photopsia requiring dose adjustment or interruption ([1]; human, in vivo): 5.2%
serious adverse events (SAEs), patients ([1]; human, in vivo): 37.7%
thrombocytopenia requiring dose adjustment or interruption ([1]; human, in vivo): 3.9%
vitreous floaters requiring dose adjustment or interruption ([1]; human, in vivo): 5.2%
vitreous floaters, treatment-related adverse effect, patients ([1]; human, in vivo): 27%
patients with dose-limiting toxicities ([1]; human, in vivo, 28 days): 6 patients
maximum tolerated dose (MTD) ([1]; once daily given continuously (dose level 6)): 48 mg
PMR, patients ([2]; BRAF WT disease, C1D15, 1 of 29): 3.4%
PMR, patients ([2]; BRAF mutant tumors, C1D15, 8 of 33): 24.2%
PMR, patients ([2]; BRAF-WT disease, C1D28, 3 of 28): 10.7%
PMR, patients ([2]; BRAF-mutant tumors, C1D28, 8 of 28): 28.6%
partial metabolic response (PMR), patients ([2]; C1D15, 10 of 65): 15.4%
progressive metabolic disease (PMD), patients ([2]; C1D15, 65 patients): 13.8%
stable metabolic disease (SMD), patients ([2]; C1D15, 65 patients): 70.8%
partial metabolic response (PMR), patients ([2]; C1D28, 58 evaluable patients, all dose levels): 20.7%
progressive metabolic disease (PMD), patients ([2]; C1D28, 58 patients): 17.2%
stable metabolic disease (SMD), patients ([2]; C1D28, 58 patients): 62.1%
patients with RECIST-defined responses who also had partial metabolic response ([2]; in vivo): Five of eight
